One may read the IC50 as the midpoint of a concentration-inhibition curve.

28 molecules from patent US11485740B2, “Inhibitors of TRPC6” (Boehringer Ingelheim International GmbH, priority 2018, dated 2022) can be followed below.

The assay concerns the target T1, human TRPC6 (Homo sapiens, UniProt Q9Y210).
T1 construct: expressed in transfected cells
T1 sequence (Q9Y210 1-931): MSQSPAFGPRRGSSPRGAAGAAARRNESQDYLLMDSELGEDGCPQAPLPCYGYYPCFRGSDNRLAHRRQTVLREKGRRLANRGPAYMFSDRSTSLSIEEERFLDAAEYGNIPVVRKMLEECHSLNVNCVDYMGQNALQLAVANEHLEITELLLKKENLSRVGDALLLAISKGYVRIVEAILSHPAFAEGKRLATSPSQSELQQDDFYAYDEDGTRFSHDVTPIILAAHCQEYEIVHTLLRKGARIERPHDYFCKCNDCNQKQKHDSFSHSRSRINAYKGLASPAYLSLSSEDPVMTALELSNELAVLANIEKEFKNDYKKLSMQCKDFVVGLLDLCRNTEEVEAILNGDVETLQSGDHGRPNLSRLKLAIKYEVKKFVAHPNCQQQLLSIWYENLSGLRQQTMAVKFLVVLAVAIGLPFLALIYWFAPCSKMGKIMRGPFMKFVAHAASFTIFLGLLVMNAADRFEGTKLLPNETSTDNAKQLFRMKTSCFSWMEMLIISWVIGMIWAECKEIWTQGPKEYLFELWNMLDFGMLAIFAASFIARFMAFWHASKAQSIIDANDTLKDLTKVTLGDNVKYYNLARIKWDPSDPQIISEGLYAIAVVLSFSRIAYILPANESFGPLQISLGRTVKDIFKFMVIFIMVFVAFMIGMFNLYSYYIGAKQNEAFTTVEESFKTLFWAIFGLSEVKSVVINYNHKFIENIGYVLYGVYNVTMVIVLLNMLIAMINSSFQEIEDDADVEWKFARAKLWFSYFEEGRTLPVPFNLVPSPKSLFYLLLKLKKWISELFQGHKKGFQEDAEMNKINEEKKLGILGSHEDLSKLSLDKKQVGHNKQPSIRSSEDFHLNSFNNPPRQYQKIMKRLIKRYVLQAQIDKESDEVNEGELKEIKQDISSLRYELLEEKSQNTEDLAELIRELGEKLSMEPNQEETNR
The assay can be described thus: High throughput screening assay: Fluo4/AM calcium fluorescence in HEK293/TREx cells expressing human TRPC6, agonist GSK1702934A (single concentration 10 μM and IC50 curves). The conditions noted are these: antagonist effect against human TRPC6, 7 concentrations 20 μM to 0.027 μM, triplicate. The format is cell-based. An outline of the steps: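 HEK293/TREx cells stably carrying tetracycline-induced (1 μg/ml) human TRPC6, loaded with Fluo4/AM (0.5 μM, 60 min, RT), pretreated 2 min with compound (10 μM final in screen), then stimulated with GSK1702934A in high-Ca2+ Ringer's (20 mM Ca2+ final). Fluorescence ratio over ~3 min normalized to no-compound and control-blocker wells; IC50 from triplicate curves.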
`COc1cc(C(=O)N2CCC(c3ccc(N)nn3)CC2)ncc1-c1ccc(OCC(F)(F)F)nc1` [Compound 47, [4-(6-Amino-pyridazin-3-yl)-piperidin-1-yl]-[4-methoxy-6′-(2,2,2-trifluoro-ethoxy)-[3,3′]bipyridinyl-6-yl]-methanone]: the IC50 turned out to be 200 nM.
As to `COc1cccc(-c2ccc(C(=O)N3CCC(c4ccc(N)nn4)CC3)cc2)c1` [Compound 9, [4-(6-Amino-pyridazin-3-yl)-piperidin-1-yl]-(3′-methoxy-biphenyl-4-yl)-methanone], the IC50 was 5400 nM.
To `COc1cc(C(=O)N2CCC(c3ccc(N)nn3)CC2)ncc1-c1ccc(C(F)(F)F)cc1` [Compound 27, 6-(1-{4-Methoxy-5-[4-(trifluoromethyl)phenyl]pyridine-2-carbonyl}piperidin-4-yl)pyridazin-3-amine] belongs 36 nM; to `COc1cc(C(=O)N2CCN(c3cnc(N)cc3OC)C[C@H]2CC(F)F)ncc1-c1ccc(C(F)(F)F)cc1` (single isomer, unassigned) [Compound 110], 400 nM; to `COc1cc(C(=O)N2CCC(c3ccc(N)nc3)CC2)ncc1-c1ccc(F)cc1` [Compound 72, (6-Amino-3′,4′,5′,6′-tetrahydro-2′H-[3,4′]bipyridinyl-1′-yl)-[5-(4-fluoro-phenyl)-4-methoxy-pyridin-2-yl]methanone], 27 nM.
Next, `COc1cc(C(=O)N2CCC(c3ccc(N)nn3)CC2)ncc1-c1ccc(C2CC2)nc1` [Compound 43, [4-(6-Amino-pyridazin-3-yl)-piperidin-1-yl]-(6′-cyclopropyl-4-methoxy-[3,3′]bipyridinyl-6-yl)-methanone]: 390 nM.
Take `COc1cc(C(=O)N2CCC(c3ccc(N)nn3)CC2)ncc1-c1ccc(OC(F)(F)F)nc1` [Compound 48, [4-(6-Amino-pyridazin-3-yl)-piperidin-1-yl]-(4-methoxy-6′-trifluoromethoxy-[3,3′]bipyridinyl-6-yl)-methanone]: the IC50 was determined as 130 nM.
Next, `CC[C@H](C)Oc1ccc(-c2ccc(C(=O)N3CCC(c4ccc(N)nn4)CC3)cc2OC)cn1` [Compound 75, [4-(6-Amino-pyridazin-3-yl)-piperidin-1-yl]-{4-[6-((S)-sec-butoxy)-pyridin-3-yl]-3-methoxy-phenyl}-methanone]: 91 nM; `COc1cc(C(=O)N2CCC(c3ccc(N)nn3)CC2)ncc1-c1ccc(OCC2CC2)nc1` [Compound 50, [4-(6-Amino-pyridazin-3-yl)-piperidin-1-yl]-(6′-cyclopropylmethoxy-4-methoxy-[3,3′]bipyridinyl-6-yl)-methanone]: 190 nM.
Next, `COc1cc(C(=O)N2CCN(c3cnc(N)cc3OC)C[C@H]2CO)ncc1-c1ccc(C(F)(F)F)cc1` [Compound 101, [(S)-4-(6-Amino-4-methoxy-pyridin-3-yl)-2-hydroxymethyl-piperazin-1-yl]-[4-methoxy-5-(4-trifluoromethyl-phenyl)-pyridin-2-yl]-methanone]: 390 nM; `CCOc1ccc(-c2cnc(C(=O)N3CCC(c4ccc(N)nn4)CC3)cc2OC)cn1` [Compound 45, [4-(6-Amino-pyridazin-3-yl)-piperidin-1-yl]-(6′-ethoxy-4-methoxy-[3,3′]bipyridinyl-6-yl)-methanone]: 440 nM; `COc1cc(C(=O)N2CCC(c3ccc(N)nn3)CC2)ncc1-c1ccc(C(F)(F)F)nc1` [Compound 42]: 700 nM.
Next, `COc1cc(C(=O)N2C[C@@H]3C[C@H]2CN3c2ccc(N)nn2)ncc1-c1ccc(C(F)(F)F)cc1` [Compound 116, [(1S,4S)-5-(6-Amino-pyridazin-3-yl)-2,5-diaza-bicyclo[2.2.1]hept-2-yl]-[4-methoxy-5-(4-trifluoromethyl-phenyl)-pyridin-2-yl]-methanone]: 190 nM.
As for `COc1cc(C(=O)N2CCC(c3ccc(N)nn3)CC2)ncc1-c1ccc(OC2CCC2)nc1` [Compound 49, [4-(6-Amino-pyridazin-3-yl)-piperidin-1-yl]-(6′-cyclobutoxy-4-methoxy-[3,3′]bipyridinyl-6-yl)-methanone], the IC50 turned out to be 140 nM.
Turning to `COc1cc(C(=O)N2CCC(c3ccc(N)nn3)CC2)ncc1-c1ccc(OC2CC2)nc1` [Compound 112, [4-(6-Amino-pyridazin-3-yl)-piperidin-1-yl]-(6′-cyclopropoxy-4-methoxy-[3,3′]bipyridinyl-6-yl)-methanone], the IC50 is 1400 nM.
Next, `COc1nc(C(=O)N2CCC(c3ccc(N)nn3)CC2)ccc1-c1ccc(C(F)(F)F)cc1` [Compound 64, [4-(6-Amino-pyridazin-3-yl)-piperidin-1-yl]-[6-methoxy-5-(4-trifluoromethyl-phenyl)-pyridin-2-yl]-methanone]: 1300 nM; `COc1cc(C(=O)N2CCN(c3cnc(N)cc3OC)C[C@H]2CO)ncc1-c1ccccc1` [Compound 89, [(S)-4-(6-Amino-4-methoxy-pyridin-3-yl)-2-hydroxymethyl-piperazin-1-yl]-(4-methoxy-5-phenyl-pyridin-2-yl)-methanone]: 540 nM.
To `COc1ccc(-c2ccc(C(=O)N3CCC(c4ccc(N)nn4)CC3)cc2)cc1` [Compound 5, [4-(6-Amino-pyridazin-3-yl)-piperidin-1-yl]-(4′-methoxy-biphenyl-4-yl)-methanone] belongs 2500 nM.
To `COc1cc(C(=O)N2CCC(c3ccc(N)nn3)CC2)ncc1-c1ccc(OC(C)C)c(F)c1` [Compound 20, [4-(6-Amino-pyridazin-3-yl)-piperidin-1-yl]-[5-(3-fluoro-4-isopropoxy-phenyl)-4-methoxy-pyridin-2-yl]-methanone] belongs 450 nM; to `COc1cc(C(=O)N2CCN(c3ccc(N)nc3)CC2)ncc1-c1ccc(C(F)(F)F)nc1` [Compound 67, [4-(6-Amino-pyridin-3-yl)-piperazin-1-yl]-(4-methoxy-6′-trifluoromethyl-[3,3′]bipyridinyl-6-yl)-methanone], 210 nM; to `COc1cc(C(=O)N2CCC(c3ccc(N)nn3)CC2)ncc1-c1ccc(OCC2CC2(F)F)nc1` (stereo not shown) [Compound 111, [4-(6-Amino-pyridazin-3-yl)-piperidin-1-yl]-[6′-(2,2-difluoro-cyclopropylmethoxy)-4-methoxy-[3,3′]bipyridinyl-6-yl]-methanone], 440 nM.
On to `COc1cc(C(=O)N2CCN(c3cnc(N)cc3C)C[C@@H]2CO)ncc1-c1ccc(C(F)(F)F)cc1` [Compound 92, [(R)-4-(6-Amino-4-methyl-pyridin-3-yl)-2-hydroxymethyl-piperazin-1-yl]-[4-methoxy-5-(4-trifluoromethyl-phenyl)-pyridin-2-yl]-methanone], for which the IC50 was determined as 56 nM.
To `COc1cc(C(=O)N2CCC(c3ccc(N)nn3)CC2)ncc1-c1ccc(OC(C)C)c(Cl)c1` [Compound 19] belongs 610 nM; to `COc1cc(C(=O)N2CCC(c3ccc(N)nn3)CC2)ccc1-c1ccc(OCC2CC2(F)F)nc1` (stereo not shown) [Compound 76, [4-(6-Amino-pyridazin-3-yl)-piperidin-1-yl]{4-[6-(2,2-difluoro-cyclopropylmethoxy)-pyridin-3-yl]-3-methoxy-phenyl}-methanone], 380 nM; to `COc1cc(C(=O)N2CCN(c3cnc(N)cc3C)C[C@@H]2CO)ncc1-c1ccccc1` [Compound 94, [(R)-4-(6-Amino-4-methyl-pyridin-3-yl)-2-hydroxymethyl-piperazin-1-yl]-(4-methoxy-5-phenyl-pyridin-2-yl)-methanone], 27 nM.
Consider `COc1cc(C(=O)N2CCC(c3nnc(N)cc3OC)CC2)ncc1-c1ccc(C(F)(F)F)cc1` [Compound 85, [4-(6-Amino-4-methoxy-pyridazin-3-yl)-piperidin-1-yl]-[4-methoxy-5-(4-trifluoromethyl-phenyl)-pyridin-2-yl]-methanone], for which the IC50 worked out at 350 nM.
Next, `COc1cc(C(=O)N2CCN(c3ccc(N)nc3)CC2)ncc1-c1ccccc1` [Compound 68, 5-[4-(4-Methoxy-5-phenylpyridine-2-carbonyl)piperazin-1-yl]pyridin-2-amine]: 39 nM; `COc1cc(C(=O)N2CCN(c3cnc(N)cc3C)C[C@@H]2CO)ncc1-c1ccc(F)cc1` [Compound 93, [(R)-4-(6-Amino-4-methyl-pyridin-3-yl)-2-hydroxymethyl-piperazin-1-yl]-[5-(4-fluoro-phenyl)-4-methoxy-pyridin-2-yl]-methanone]: 27 nM.
